Experimental data from patent US20170079966A1, “INHIBITION OF TUMOR CELL INTERACTIONS WITH THE MICROENVIRONMENT RESULTING IN A REDUCTION IN TUMOR GROWTH AND DISEASE PROGRESSION” (Deciphera Pharmaceuticals, LLC, priority 2014, published 2017).
Like-named read-outs stand apart in the source and are kept apart here.

Experiments:
[1] = tested on: GSC17 glioblastoma cells; experiment: GSC17 glioma stem cell patient-derived xenograft model (tumor volume, immunohistochemistry); assay type: in vivo, mice
Description: For the in vivo experiments, 4- to 6-week-old female nude mice that were strictly inbred at The University of Texas MD Anderson Cancer Center and maintained in the MD Anderson Veterinary in accordance with institutional guidelines were used. For the in vivo experiments, GSC11 (5×10^5) or GSC17 (5×10^4) glioblastoma cells were implanted intracranially into nude mice. […] Control mice for these cohorts were treated with phosphate-buffered saline by i.p. injection and/or with 0.4% HPMC vehicle by oral gavage. One cohort of 10 mice per group were treated continuously and followed for survival. A separate cohort of 9 mice per group were treated continuously until the designated time point, and the tumors from these mice were extracted at 3, 4, 5 weeks in GSC11 xenograft mice model and at 3.5, 4.5, 5.5 weeks in GSC17 xenograft mice model after the start of treatment.
When the mice treated for the designated time period developed signs and symptoms of advanced tumors, they were euthanized, and their brains were removed, fixed in 4% formaldehyde for 24 hours, and embedded in paraffin. The tissues were then sectioned serially (4 μm) and stained with hematoxylin and eosin (Sigma-Aldrich). Tumor formation and phenotype were determined by histologic analysis of the hematoxylin- and eosin-stained sections. The tumor volume, greatest longitudinal diameter (length), and greatest transverse diameter (width) were measured using an external caliper and Adobe Illustrator software. The tumor volumes were calculated by the following formula: volume=½(length×width^2).
For immunohistochemical analyses, the tissue sections were deparaffinized and subjected to graded rehydration. After blocking the tissue in 5% horse and goat serum and antigen retrieval solution (citrate buffer, pH 6.0), we incubated the tissue sections overnight at 4° C. with primary antibodies against Factor VIII (1:500; A0082, Dako) to assess microvessel formation, vimentin (1:100; M0725, Dako) to assess mesenchymal marker expression, F4/80 (1:50; 123102, BioLegend) to assess monocyte infiltration, nestin (1:300; Ab6142, Abcam) to assess glioma stem cell marker expression, HGF (1:200; LS-B4657, LSBio), and TIE2 (1:50; Santa Cruz Biotechnology) to assess TIE2-expressing monocyte infiltration. Texas red fluorescein isothiocyanate-conjugated secondary antibodies or anti-rat immunoglobulin G antibodies (Invitrogen) were used for 1 hour at room temperature.
All statistical analyses were conducted with the GraphPad 6 (InStat) software for Windows 7. Survival analysis was conducted using the Kaplan-Meier method, and differences in survival between treatment groups were assessed using the log-rank test. All other comparisons were performed using an unpaired two-tailed Student t-test. Summary statistics for continuous data are expressed as the mean±standard error of the mean. P values less than 0.05 were considered statistically significant. The nestin staining was assessed using the Image-Pro Plus system version 7.0 (Media Cybernetics) in ×10 fields of at least three tumor samples per group with three to four different sections per tumor sample.

[2] = tested on: HMVEC capillary tube formation; experiment: HMVEC capillary tube formation; assay type: cell-based; conditions: Homo sapiens
Description: Growth factor reduced Matrigel gel solution (BD Biosciences, San Jose, Calif.) was dispensed using pre-chilled tips into each well of a pre-chilled 96-well black, clear bottom, tissue-culture treated plate. The plate was incubated at 37° C. for 1 h to allow the matrix to form a gel. […] The cell/Compound 1 suspensions were then transferred to the Matrigel plate wells and incubated overnight. The final concentration of DMSO in the assay was 0.5%. The next day, cells were stained with Calcein-AM dye (Life Technologies). Images obtained via fluorescent microscopy were analyzed for tube length using ImagePro Analyzer (Media Cybernetics, Rockville, Md.) with a macro to automatically detect and measure tube formation.

[3] = tested on: B16/F10 cells; experiment: B16/F10 metastatic melanoma model; conditions: Compound 1 15 mg/kg
[4] = tested on: circulating TIE2+ and TIE2+/MET+ monocytes; experiment: Flow cytometry of circulating TIE2/MET-expressing monocytes from U87-MG xenograft model; assay type: in vivo, mice; conditions: single agents; after five weeks of treatment
Description: Flow cytometry of circulating TIE2/MET-expressing monocytes from U87-MG xenograft model. Peripheral blood samples were fixed using Lyse/Fix buffer (BD Biosciences, San Jose, Calif.). BD Fc Block was added and cells were stained with CD11b-PECy7 and Gr1-APC antibodies (BD Pharmingen), and TIE2-PE and MET-FITC antibodies (eBioscience) or isotype controls. Data was collected on an Accuri C6 cytometer. Monocytes were gated using side and forward scatter.
To monitor these monocytes in the U87 survival model, peripheral monocytes were gated on CD11b+/Grl-surface markers and TIE2^+ and/or TIE2^+/MET^+ cells quantitated. In the U87 glioma survival study, we observed both of these TIE2^+ expressing monocyte populations in the circulation of vehicle-treated mice after five weeks of treatment. […] The lowered population of both of these TIE2^+ monocyte populations in the combination cohort was consistent with greater survival benefit (FIG. 6).

[5] = tested on: PyMT mammary tumor; experiment: PyMT syngeneic breast cancer model; assay type: in vivo, mice
Description: Female FVB/NJ mice were implanted in the 4th mammary fat pad with one million cells that had been dissociated from tumor fragments from MMTV-PyMT donor mice. […] Mice (n=10/group) were dosed for three weeks, then, primary tumor and lungs were collected and fixed. Lung sections were stained with H&E at Premier Laboratory. Lung metastases (≧10 cells) were counted manually via microscopy. Data were analyzed via one-way analysis of variance (ANOVA), with post-hoc analysis by the method of Holm-Sidak. For analysis of TIE2-positive macrophages, tumor sections were stained with TIE2 and CD31 antibodies at Premier Laboratory. The density of TIE2-positive cells at the stroma/tumor boundary in each tumor was scored using 0=no staining, 1=low, 2=medium, and 3=high.

[6] = tested on: SK-MEL-28 and SK-MEL-5 cells (pERK, pMET, AKT); experiment: HGF-stimulated melanoma cell signal transduction assay; assay type: cell-based; conditions: 50 nM, 50 ng/mL HGF 1 hr
Description: SK-MEL-5 and SK-MEL-28 cells were added to 12-well plates at 450,000 and 250,000 cells/well, respectively, and incubated overnight. […] Cells were then stimulated with 50 ng/mL HGF for 1 hr. Antibodies were obtained from Cell Signaling Technology.

O=C(Nc1cc(Oc2cc(F)c(NC(=O)C3(C(=O)Nc4ccc(F)cc4)CC3)cc2F)ccn1)C1CC1 [Compound 1, N-(4-(2-(cyclopropanecarboxamido)pyridin-4-yloxy)-2,5-difluorophenyl)-N′-(4-fluorophenyl)cyclopropane-1,1-dicarboxamide]
Tumor volume at 3.5 weeks ([1]; GSC17, bevacizumab 10 mg/kg i.p. twice per week, Compound 1 10 mg/kg oral twice daily): 0.1±0.2 mm^3
Tumor volume at 4.5 weeks ([1]; GSC17, same dosing): 9.8±3.9 mm^3
Tumor volume at 5.5 weeks ([1]; GSC17, same dosing): 10.1±1.4 mm^3
Factor VIII-positive area ([1]; GSC17 xenograft mouse model): 1.0±0.2%
Nestin-positive area ([1]; GSC17 xenograft mouse model): 2.9±1.0%
Mesenchymal tumor marker vimentin / EMT (immunohistochemistry) ([1]; GSC-17 glioma model): decreases levels of vimentin
Tumor infiltration of TIE2-positive/F4/80-positive cells ([1]; GSC-17 glioma xenograft model): lower
IC50 ([2]; 40 ng/mL HGF, read-out: IC50, capillary tube formation upon stimulation with HGF): 11 nM
IC50 ([2]; 100 ng/mL VEGF, read-out: IC50, capillary tube formation upon stimulation with VEGF): 58 nM
IC50 ([2]; 200 ng/mL ANG2, read-out: IC50, capillary tube formation upon stimulation with ANG2): 7 nM
T-C [3]: > 4.3 days
Treated animals with metastases on Day 21 (ex vivo BLI) ([3]; 2/12 animals): 16.6%
Inhibition of the development of pulmonary metastases ([3]; Day 21): 72%
% T/C, tumor growth on Day 21 ([3]; treatment from Day 0): 30%
Numbers of circulating TIE2+ and TIE2+/MET+ monocyte populations [4]: did not alter
Tumor growth inhibition (TGI) ([5]; after dosing for three weeks, paclitaxel 10 mg/kg i.v. every 5 days, Compound 1 15 mg/kg twice daily): 69%
Reduction of TIE2 score (stromal density of TIE2+ cells) ([5]; same dosing): 50%
Reduction of lung metastases compared to controls ([5]; same dosing): 74%
HGF-induced activation of MET and AKT [6]: inhibited
